Laboratory results: ChEMBL document CHEMBL1152236 (Bioorg Med Chem, 2008)

Experiments:
[1] = target: T1, Carbonic anhydrase 1 (Homo sapiens, UniProt P00915); assay: Inhibition of human carbonic anhydrase 1 esterase activity by spectrophotometry
[2] = target: T1, Carbonic anhydrase 1; assay: Inhibition of human carbonic anhydrase 1 esterase activity by noncompetitive Lineweaver-Burke plot
[3] = target: T2, Carbonic anhydrase 2 (Homo sapiens, UniProt P00918); assay: Inhibition of human carbonic anhydrase 2 esterase activity by competitive Lineweaver-Burke plot
[4] = target: T2, Carbonic anhydrase 2; assay: Inhibition of human carbonic anhydrase 2 esterase activity by spectrophotometry
[5] = target: T1, Carbonic anhydrase 1; assay: Inhibition of human carbonic anhydrase 1 esterase activity by uncompetitive Lineweaver-Burke plot
[6] = target: T2, Carbonic anhydrase 2; assay: Inhibition of human carbonic anhydrase 2 esterase activity by non-competitive Lineweaver-Burke plot
[7] = target: T2, Carbonic anhydrase 2; assay: Inhibition of human carbonic anhydrase 2 esterase activity by uncompetitive Lineweaver-Burke plot
[8] = target: T1, Carbonic anhydrase 1; assay: Inhibition of human carbonic anhydrase 1 esterase activity by competitive Lineweaver-Burke plot

T1 sequence (P00915 whole entry): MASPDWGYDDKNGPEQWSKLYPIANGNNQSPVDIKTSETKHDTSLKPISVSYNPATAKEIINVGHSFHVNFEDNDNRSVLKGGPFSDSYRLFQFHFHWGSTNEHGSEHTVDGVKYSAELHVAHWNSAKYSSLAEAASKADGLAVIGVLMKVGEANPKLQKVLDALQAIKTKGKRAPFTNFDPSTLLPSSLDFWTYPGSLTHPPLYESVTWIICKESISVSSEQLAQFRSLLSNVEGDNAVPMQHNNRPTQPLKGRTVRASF

SMILES | IC50 [1] [µM] | Ki [2] [µM] | Ki [3] [µM] | IC50 [4] [µM] | Ki [5] [µM] | Ki [6] [µM] | Ki [8] [µM] | Ki [7] [µM]
O=C(O)c1c(O)cc([N+](=O)[O-])cc1[N+](=O)[O-] | 7.64 | 14.8 |  |  |  |  |  | 
O=C(O)c1ccc(S(=O)(=O)O)cc1O | 290 |  | 1060 | 720 | 480 |  |  | 
Nc1ccc(C(=O)O)c(O)c1 [AMINOSALICYLIC ACID] | 130 | 240 |  | 750 |  | 1230 |  | 
CC(=O)Oc1ccccc1C(=O)O [ASPIRIN] | 2710 | 7530 |  |  |  |  |  | 
Cc1cccc(C(=O)O)c1O [HYDROXYTOLUIC ACID] | 3070 | 11400 |  | 4700 |  |  |  | 10600
O=C(O)c1cc(S(=O)(=O)O)ccc1O [SULFOSALICYLIC] | 420 |  |  | 290 |  | 1920 | 770 | 

These reach a lower IC50 [1]. Values come first.

IC50 [1] [µM] | Ki [2] [µM] | Ki [3] [µM] | IC50 [4] [µM] | Ki [5] [µM] | Ki [6] [µM] | Ki [8] [µM] | SMILES | Ki [7] [µM]
4.07 |  |  |  | 4.16 |  |  | O=C(O)c1cc(Cl)ccc1O [5-CHLOROSALICYLIC ACID] | 
3.38 | 8.45 |  |  |  |  |  | O=C(O)c1cc(-c2ccc(F)cc2F)ccc1O [DIFLUNISAL] | 
3.04 | 6.87 |  | 4.49 |  | 8.72 |  | O=C(O)c1cc(/N=N/c2ccc(S(=O)(=O)Nc3ccccn3)cc2)ccc1O [SULFASALAZINE] | 
